Measurements from patent US10940139B2, “Compounds that interact with the Ras superfamily for the treatment of cancers, inflammatory diseases, rasopathies, and fibrotic disease” (Shy Therapeutics LLC, priority 2017, dated 2021).
Where two headings read alike, the source gives them in different places.

Legend:
Experiment in all cases: Ras GTP binding domain inhibition assay (labeled GTP)
[1] = molecular target: KRas G12C/Q61H double mutant (Homo sapiens (Human), UniProt P01116, G12C/Q61H); conditions: 20 μM compound
How it was run: (§1)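 Inhibition of labeled GTP binding is measured on immobilized His-KRas protein in Tris buffer pH 7.5 with 1 mM MgCl2 and 1 mM DTT.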

[2] = molecular target: KRas G12D/Q61H double mutant (Homo sapiens (Human), UniProt P01116, G12D/Q61H); conditions: for inhibition at 20 µM: 20 μM compound; for IC50: serial dilution, read-out: KRas G12D Q61H (classes E-H, IC50)
How it was run: as §1

[3] = molecular target: KRas Q61H mutant (Homo sapiens (Human), UniProt P01116, Q61H); conditions: 20 μM compound
How it was run: as §1

[4] = read-out: % Inhibition at 20 μM KRas G12C Q61H
[5] = read-out: % Inhibition at 20 μM KRas G12D Q61H
[6] = read-out: % Inhibition at 20 μM KRas Q61H
[7] = KRas G12C/Q61H double mutant, read-out: % Inhibition at 20 μM of K-Ras mutant and wild-type protein, KRas G12C Q61H
[8] = KRas G12D/Q61H double mutant, read-out: % Inhibition at 20 μM of K-Ras mutant and wild-type protein, KRas G12D Q61H
[9] = KRas Q61H, read-out: % Inhibition at 20 μM of K-Ras mutant and wild-type protein, KRas Q61H

Chain of KRas Q61H mutant (P01116-2 other isoform, or with tags, fused parts or gaps Q61H): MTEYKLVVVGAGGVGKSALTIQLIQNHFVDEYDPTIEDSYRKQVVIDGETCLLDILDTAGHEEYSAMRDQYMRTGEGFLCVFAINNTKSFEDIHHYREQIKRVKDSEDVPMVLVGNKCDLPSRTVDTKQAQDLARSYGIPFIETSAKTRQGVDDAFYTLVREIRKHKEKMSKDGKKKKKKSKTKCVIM
Chain of KRas G12C/Q61H double mutant (P01116-2 other isoform, or with tags, fused parts or gaps G12C/Q61H): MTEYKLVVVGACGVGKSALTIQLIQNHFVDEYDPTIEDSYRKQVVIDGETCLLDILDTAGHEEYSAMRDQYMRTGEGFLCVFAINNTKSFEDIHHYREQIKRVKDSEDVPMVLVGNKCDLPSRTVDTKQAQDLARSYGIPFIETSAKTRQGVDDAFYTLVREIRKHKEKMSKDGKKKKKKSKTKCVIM
Chain of KRas G12D/Q61H double mutant (P01116-2 other isoform, or with tags, fused parts or gaps G12D/Q61H): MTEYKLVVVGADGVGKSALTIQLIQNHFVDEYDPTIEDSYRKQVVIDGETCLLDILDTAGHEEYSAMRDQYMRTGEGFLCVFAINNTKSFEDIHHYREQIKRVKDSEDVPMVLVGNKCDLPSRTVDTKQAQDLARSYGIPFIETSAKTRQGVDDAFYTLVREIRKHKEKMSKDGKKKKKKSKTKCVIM

## COc1nccc(CCNC(=O)c2csc3nc(-c4ccccn4)nc(N4CCOCC4)c23)n1 [drawing 2897]
[1]; [4]
  inhibition at 20 µM: 25 to 50%
[2]; [5]
  inhibition at 20 µM: 1 to 25%
[3]; [6]
  inhibition at 20 µM: 25 to 50%

## O=C(NCCc1ccnc(O)n1)c1csc2nc(-c3ccccn3)nc(N3CCOCC3)c12 [drawing 2898]
[1]; [4]
  inhibition at 20 µM: 51 to 75%
[2]; [5]
  inhibition at 20 µM: 1 to 25%
[3]; [6]
  inhibition at 20 µM: 51 to 75%

## CCn1nc(C)cc1-c1csc2c(O)nc(-c3ccccn3)nc12 [drawing 2903]
[1]; [4]
  inhibition at 20 µM: 51 to 75%
[2]; [5]
  inhibition at 20 µM: 51 to 75%
[2]
  IC50: 11 to 30 µM
[3]; [6]
  inhibition at 20 µM: 51 to 75%

## Oc1nc(-c2ccccn2)nc2c(-c3ccnn3-c3ccccn3)csc12 [drawing 2904]
[1]; [4]
  inhibition at 20 µM: 25 to 50%
[2]; [5]
  inhibition at 20 µM: 1 to 25%
[3]; [6]
  inhibition at 20 µM: 25 to 50%

## Nc1nc(-c2ccccn2)nc2scc(C(=O)O)c12 [drawing 2906]
[1]; [4]
  inhibition at 20 µM: 51 to 75%
[2]; [5]
  inhibition at 20 µM: 25 to 50%
[3]; [6]
  inhibition at 20 µM: 51 to 75%

## COC(=O)c1cc2nc(-c3ccccn3)nc(O)c2s1 [drawing 2907]
[1]; [4]
  inhibition at 20 µM: 51 to 75%
[2]; [5]
  inhibition at 20 µM: 51 to 75%
[2]
  IC50: > 30 µM
[3]; [6]
  inhibition at 20 µM: 51 to 75%

## Oc1nc(-c2ccccn2)nc2c(-c3cnc4ccccc4c3)csc12 [drawing 3462]
[1]; [7]
  inhibition at 20 µM: 25 to 50%
[2]; [8]
  inhibition at 20 µM: 25 to 50%
[3]; [9]
  inhibition at 20 µM: 51 to 75%

## Oc1nc(-c2ccccn2)nc2c(-c3ccc(Cl)c(Cl)c3)csc12 [drawing 3463]
[1]; [7]
  inhibition at 20 µM: 1 to 25%
[2]; [8]
  inhibition at 20 µM: 25 to 50%
[3]; [9]
  inhibition at 20 µM: 25 to 50%

## Oc1nc(-c2ccccn2)nc2c(-c3cncc(F)c3)csc12 [drawing 3464]
[1]; [7]
  inhibition at 20 µM: 1 to 25%
[2]; [8]
  inhibition at 20 µM: 1 to 25%
[3]; [9]
  inhibition at 20 µM: 1 to 25%

## Oc1nc(-c2ccccn2)nc2c(-c3cc(C(F)(F)F)ccc3F)csc12 [drawing 3465]
[1]; [7]
  inhibition at 20 µM: 1 to 25%
[2]; [8]
  inhibition at 20 µM: 1 to 25%
[3]; [9]
  inhibition at 20 µM: 1 to 25%

## Oc1nc(-c2ccccn2)nc2c(-c3cncc(C(F)(F)F)c3)csc12 [drawing 3466]
[1]; [7]
  inhibition at 20 µM: 0%
[2]; [8]
  inhibition at 20 µM: 1 to 25%
[3]; [9]
  inhibition at 20 µM: 1 to 25%

## Cc1cncc(-c2csc3c(O)nc(-c4ccccn4)nc23)c1 [drawing 3467]
[1]; [7]
  inhibition at 20 µM: 25 to 50%
[2]; [8]
  inhibition at 20 µM: 25 to 50%
[3]; [9]
  inhibition at 20 µM: 25 to 50%

## Cc1cc2nc(-c3ccccn3)nc(O)c2s1 [drawing 3472]
[1]; [7]
  inhibition at 20 µM: 51 to 75%
[2]; [8]
  inhibition at 20 µM: 51 to 75%
[3]; [9]
  inhibition at 20 µM: 51 to 75%

## COC(=O)c1c(C)sc2c(O)nc(-c3ccccn3)nc12 [drawing 3473]
[1]; [7]
  inhibition at 20 µM: 51 to 75%
[2]; [8]
  inhibition at 20 µM: 51 to 75%
[3]; [9]
  inhibition at 20 µM: 51 to 75%

## Cc1c(Br)sc2c(O)nc(-c3ccccn3)nc12 [drawing 3474]
[1]; [7]
  inhibition at 20 µM: 25 to 50%
[2]; [8]
  inhibition at 20 µM: 25 to 50%
[3]; [9]
  inhibition at 20 µM: 51 to 75%

## COC(=O)c1sc2c(O)nc(-c3ccccn3)nc2c1C [drawing 3476]
[1]; [7]
  inhibition at 20 µM: 51 to 75%
[2]; [8]
  inhibition at 20 µM: 25 to 50%
[3]; [9]
  inhibition at 20 µM: 51 to 75%

## Oc1nc(-c2ccccn2)nc2c3c(sc12)CNC3 [drawing 3477]
[1]; [7]
  inhibition at 20 µM: 76 to 100%
[2]; [8]
  inhibition at 20 µM: 51 to 75%
[3]; [9]
  inhibition at 20 µM: 76 to 100%

## COc1nc(-c2ccccn2)nc2c(C3CCCCC3)csc12 [drawing 3479]
[1]; [7]
  inhibition at 20 µM: 0%
[2]; [8]
  inhibition at 20 µM: 1 to 25%
[3]; [9]
  inhibition at 20 µM: 1 to 25%

## Cc1sc2c(O)nc(-c3ccccn3)nc2c1C(=O)O [drawing 3482]
[1]; [7]
  inhibition at 20 µM: 25 to 50%
[2]; [8]
  inhibition at 20 µM: 25 to 50%
[3]; [9]
  inhibition at 20 µM: 25 to 50%

## Cc1c(C(=O)N2CCN(c3ccccc3)CC2)sc2c(O)nc(-c3ccccn3)nc12 [drawing 3483]
[1]; [7]
  inhibition at 20 µM: 51 to 75%
[2]; [8]
  inhibition at 20 µM: 51 to 75%
[3]; [9]
  inhibition at 20 µM: 51 to 75%

## Cc1sc2nc(-c3ccccn3)nc(N)c2c1Br [drawing 3484]
[1]; [7]
  inhibition at 20 µM: 25 to 50%
[2]; [8]
  inhibition at 20 µM: 25 to 50%
[3]; [9]
  inhibition at 20 µM: 25 to 50%

## COC(=O)c1c(C)sc2nc(-c3ccccn3)nc(N)c12 [drawing 3485]
[1]; [7]
  inhibition at 20 µM: 25 to 50%
[2]; [8]
  inhibition at 20 µM: 51 to 75%
[3]; [9]
  inhibition at 20 µM: 25 to 50%

## Oc1nc(-c2ccccn2)nc2c(CC3CCNCC3)csc12 [drawing 3486]
[1]; [7]
  inhibition at 20 µM: 51 to 75%
[2]; [8]
  inhibition at 20 µM: 51 to 75%
[3]; [9]
  inhibition at 20 µM: 51 to 75%

## Oc1nc(-c2ccccn2)nc2c(CC3CCCNC3)csc12 (centres unmarked) [drawing 3488]
[1]; [7]
  inhibition at 20 µM: 51 to 75%
[2]; [8]
  inhibition at 20 µM: 25 to 50%
[3]; [9]
  inhibition at 20 µM: 51 to 75%

## COc1nc(-c2ccccn2)nc2c(C3CC3)csc12 [drawing 3489]
[1]; [7]
  inhibition at 20 µM: 0%
[2]; [8]
  inhibition at 20 µM: 1 to 25%
[3]; [9]
  inhibition at 20 µM: 0%

## COc1cnc(C2(N)CCCC2)nc1O [drawing 3490]
[1]; [7]
  inhibition at 20 µM: 1 to 25%
[2]; [8]
  inhibition at 20 µM: 1 to 25%
[3]; [9]
  inhibition at 20 µM: 0%
